Data taken from patent US20240238236A1, “COMPOSITION FOR REGULATING CARBOHYDRATE METABOLISM, AND METHOD FOR ASSESSING CARBOHYDRATE METABOLISM CONDITIONS OF SUBJECT” (KAGAMI INC., priority 2021, published 2024).

Columns and labels:
Assay type in all cases: in vivo
[1] = tested on: carbohydrate metabolism-modified mice (type 1 diabetes model); assay: casual blood glucose measurement; settings: for increase in casual blood glucose level: 20 mM in drinking water on D-amino acid-free diet, after STZ (2 weeks); for casual blood glucose level: vs water control
Protocol: (§3) After removing the left kidney of C57BL/6(B6) mice (−2 weeks: −2 w), a D-amino acid-eliminated diet (D-amino acid-free diet, D-fd) was provided, and groups administered aqueous solution of 20 mM D-alanine (n=5), 20 mM D-serine (n=5), 20 mM D-proline (n=5), 20 mM D-leucine (n=5) or water (n=6 to 14) in drinking water, and a group given normal diet and water as a control (n=5), were administered streptozotocin (STZ) at 50 mg/kg (0 weeks) to create carbohydrate metabolism-modified model mice, and blood insulin measurement (−1 weeks, 3 weeks), casual blood glucose measurement (−1 weeks, 2 weeks), fasting blood glucose measurement (−1 weeks, 3 weeks) and measurement of insulin and glucagon in pancreatic islets of Langerhans by antibody staining, were conducted as appropriate.

[2] = tested on: carbohydrate metabolism-modified mice (type 1 diabetes model); assay: fasting blood glucose measurement; settings: vs water control
Protocol: as §3

[3] = tested on: db/db mice (type 2 diabetes model); assay: casual blood glucose in db/db mice; settings: 20 mM in drinking water, 5 to 18 weeks, vs control group
[4] = tested on: carbohydrate metabolism-modified mice (type 1 diabetes model); assay: systolic/diastolic blood pressure measurement; settings: 80 mM in drinking water; 10 weeks after STZ; vs B6 group
Protocol: (§1) After removing the left kidney of C57BL/6(B6) mice (−2 weeks: −2 w), a group administered an aqueous solution of 20 mM D-alanine (n=5 to 8), 80 mM D-alanine (n=3 to 4), 20 mM D-serine (n=6 to 7) or 80 mM D-serine (n=4) as drinking water, and a group administered water as drinking water as a control (n=8) were administered streptozotocin (STZ) at 50 mg/kg (0 weeks) to create carbohydrate metabolism-modified model mice, and insulin tolerance testing (−1 weeks, 2 weeks), casual blood glucose measurement (0 weeks to 18 weeks), fasting blood glucose measurement (0 weeks to 16 weeks) and systolic/diastolic blood pressure measurement (−1 weeks to 18 weeks) were conducted as appropriate.

[5] = tested on: carbohydrate metabolism-modified mice (type 1 diabetes model); assay: insulin tolerance testing (ITT); settings: before and at 2 weeks after STZ, vs water control; for blood glucose level and insulin resistance in insulin tolerance testing (ITT): 20 mM in drinking water
Protocol: (§2) After removing the left kidney of C57BL/6(B6) mice (−2 weeks: −2 w), a group administered Risperidone aqueous solution as a DAO inhibitor in drinking water (n=3 to 7) and a group administered water as drinking water (n=9 to 11) as a control were administered streptozotocin (STZ) at 50 mg/kg (0) weeks) to create carbohydrate metabolism-modified model mice, and insulin tolerance testing (−1 weeks, 2 weeks), intra-peritoneal glucose tolerance testing (−1 weeks), casual blood glucose measurement (−1 weeks, 2 weeks, 6 weeks) and fasting blood glucose measurement (−1 weeks, 2 weeks) were conducted as appropriate.
as §1

[6] = tested on: carbohydrate metabolism-modified mice (type 1 diabetes model); assay: death during D-amino acid administration in drinking water; settings: 80 mM in drinking water (n=4); within 18 weeks
Protocol: as §1

[7] = tested on: carbohydrate metabolism-modified mice (type 1 diabetes model); assay: intra-peritoneal glucose tolerance testing (IPGTT); settings: Risperidone in drinking water; B6 mice, -1 weeks; vs water control
Protocol: as §2

[8] = 20 mM or 80 mM in drinking water, dose-dependent, after STZ (0 to 18 weeks)
[9] = 20 mM or 80 mM in drinking water, dose-dependent, after STZ (0 to 16 weeks)

Compound | increase in casual blood glucose level [1] | casual blood glucose level [1, 8] | fasting blood glucose level [2, 9] | casual blood glucose level [3] | diastolic pressure [4] | systolic pressure [4] | blood glucose level and insulin resistance in insulin tolerance testing (ITT) [5] | death of animals (toxicity) [6] | casual blood glucose level ([1]; Risperidone in drinking water, after STZ (2, 6 weeks)) | fasting blood glucose level ([2]; Risperidone in drinking water, after STZ (2 weeks)) | blood glucose level in insulin tolerance testing (ITT) ([5]; Risperidone aqueous solution in drinking water, left kidney removed, STZ 50 mg/kg B6 mice) | blood glucose level in intra-peritoneal glucose tolerance testing (IPGTT) [7]
C[C@@H](N)C(=O)O [D-alanine] | suppressed | remained at a low levels | remained at a low levels | lower levels | lowered | lowered | lower blood glucose levels and lower insulin resistance compared to the control group | – | – | – | – | –
CC(C)C[C@@H](N)C(=O)O [D-leucine] | suppressed | – | – | – | – | – | – | – | – | – | – | –
N[C@H](CO)C(=O)O [D-serine] | suppressed | remained at a low levels | remained at a low levels | – | – | – | lower blood glucose levels and lower insulin resistance compared to the control group | one individual died within 18 weeks | – | – | – | –
Cc1nc2n(c(=O)c1CCN1CCC(c3noc4cc(F)ccc34)CC1)CCCC2 [Risperidone, reference compound] | – | – | – | – | – | – | – | – | remained at low levels in the Risperidone group compared to the control group | remained at low levels in the Risperidone group compared to the control | lower blood glucose levels compared to the control group | lower values for blood glucose level than the control group
